Experimental data taken from article PMC11508334, “In Vitro Evaluation of New 5-Nitroindazolin-3-one Derivatives as Promising Agents against Trypanosoma cruzi” (International Journal of Molecular Sciences, 2024).

Key:
[1] = test system: T. cruzi epimastigote stage (Dm28c strain); experiment: Epimastigotes viability study (MTT); format: cell-based, Trypanosoma cruzi; settings: for SI Epimastigote: Selectivity Index IC50 macrophages RAW 264.7/IC50 epimastigotes Dm28c; for IC50: T. cruzi Dm28c epimastigotes, 24 h, MTT
Description: The trypanocidal activity was evaluated against the T. cruzi epimastigote stage (Dm28c strain). It was measured through the MTT assay using 0.22 mg/mL phenazine methosulfate (as an electron carrier). T. cruzi epimastigote from the author's collection (Programa de Farmacología Molecular y Clínica, Facultad de Medicina, Universidad de Chile, Santiago, Chile) were grown at 28 °C in liver infusion tryptase (LIT) medium, as reported earlier, but replacing blood with 4 μM hemin. […] fetal bovine serum (FBS) was added to a final concentration of 10% v/v. In this colorimetric assay for testing the trypanocidal activity, the compounds were dissolved in DMSO. They were added to 3 × 10^6 parasites/mL at 100 μM final concentrations in RPMI 1640 culture medium without phenol red for 24 h at 28 °C. The final concentration of DMSO was less than 0.1% v/v. […] The MTT assay, which was described previously, determined the viability of the epimastigotes.

RAW 264.7 cells [2] = experiment: Cytotoxicity MTT assay on RAW 264.7 cells; format: cell-based; settings: murine RAW 264.7 macrophages
Description: The compounds under study, dissolved in dimethylsulfoxide (DMSO), were added to the culture media at 10–200 μM. RAW 264.7 cells were cultured in 96-well plates (5 × 10^4 cells per well), and 100 μL of 0.5 mg/mL MTT was added to each well. The DMSO final concentration was less than 0.1% v/v. After incubation for 4 h at 37 °C, the generated water-insoluble formazan dye was dissolved by adding 100 μL of 10% w/v sodium dodecyl sulfate (SDS) in 0.01 M HCl. The plates were further incubated overnight at 37 °C; […] 0.5% of Triton X-100 was added as a positive control. The plates were further incubated overnight at 37 °C, and the optical density of the wells was determined using a microplate reader (Asys Expert Plus©, Asys Hitachi, Vienna, Austria) at 570 nm. Under these conditions, the optical density is directly proportional to the viable cell number in each well. All experiments were performed at least thrice and data were reported as means and their standard deviations from triplicate cultures. Results are reported as IC50 regarding the control (uninfected cells in culture medium)

[3] = test system: trypomastigotes of T. cruzi; experiment: Plasmatic membrane permeability assay (SYTOX Green) on trypomastigotes; format: cell-based, Trypanosoma cruzi; settings: compound at IC50, 1 h
Description: Late growth-phase trypomastigotes of T. cruzi (3 × 10^6/well) were washed and incubated in the dark with 1 μM SYTOX Green probe (Molecular Probes) in HANKS′ balanced salts solution (HBSS; Sigma-Aldrich) supplemented with 10 mM D-glucose (HBSS + Glu). The test compound was added at IC50, and fluorescence was measured after 1 h of treatment. The maximum permeabilization was obtained with 0.5% Triton X-100. Fluorescence intensity was determined using Varioskan™ LUX multimode microplate reader (ThermoFisher Scientific, Waltham, MA, USA), with excitation and emission wavelengths of 485 and 520 nm, respectively. The following internal controls were used in the evaluation: (i) the background fluorescence of the compound at the respective wavelengths and (ii) the possible interference of DMSO. Samples were tested in triplicate.

[4] = test system: trypomastigote form of T. cruzi; experiment: Analysis of ATP levels (CellTiter-Glo); format: cell-based, Trypanosoma cruzi; settings: trypomastigotes; relative to negative control
Description: The CellTiter-Glo® Luminescent Cell Viability Assay (Promega, Fitchburg, WI, USA) was used to detect variations in ATP levels. After incubation, treated parasites were centrifuged (6000 rpm, 10 min, 4 °C) and treated according to the manufacturer’s instructions. Luminescence was determined using the Varioskan™ LUX multi-mode microplate reader (ThermoFisher Scientific). Results were expressed as a percentage relative to the negative control without treatment. Sodium azide (20 mM NaN3 for 3 h) was added as a positive control and benznidazole as a reference treatment. (1) %relative control=luminescence sample/luminescence control∗100

Dm28c trypomastigotes [5] = experiment: Trypomastigote viability study (MTT); format: cell-based, Trypanosoma cruzi; settings: for IC50: T. cruzi Dm28c trypomastigotes, 24 h, MTT
Description: Vero cells (ATCC CCL-81) were infected with Dm28c trypomastigotes at a 1:3 (cell: parasite) ratio. T. cruzi trypomastigotes were initially obtained from primary cultures of peritoneal macrophage from chagasic mice. […] Vero cell cultures were then infected with trypomastigotes and incubated at 37 °C in humidified air and 5% CO2 for 5–7 days. After that time, the culture medium was collected and centrifuged at 500× g for 5 min. The trypomastigote-containing pellet was re-suspended in RPMI 1640 supplemented with inactivated FBS and penicillin–streptomycin at a final 1 × 10^7 parasites/mL density. Trypomastigote viability assays were performed using the MTT reduction method as described previously. Then, 1 × 10^7 parasites/mL was incubated in RPMI 1640 with inactivated FBS at 37 °C for 24 h with or without the studied compounds.

[6] = test system: Dm28c trypomastigote of T. cruzi; experiment: Mitochondrial membrane potential (TMRM incorporation); format: cell-based, Trypanosoma cruzi; settings: trypomastigotes, compound at IC50, 3 h; compared to negative control
Description: Mitochondrial membrane potential (ψm) was determined by the incorporation of the fluorescent probe tetramethylrhodamine methyl ester (TMRM). […] Then, carbonylcyanide-m-chlorophenylhydrazone (CCCP, 10 µM) was added as a control and incubated at 37 °C in humidified air and 5% CO2 for 3 h. Parasites were washed with phosphate-buffered saline (pH 7.4), and suspensions were incubated with TMRM (50 nM) for 15 min. Fluorescence measurements determined the incorporation of the probe at an excitation wavelength of 550 nm and an emission of 590 nm. All the assays were performed in darkness.

[7] = Cyclic voltammetry, reduction of nitro group; format: physicochemical; settings: for −EpaIII: anodic peak potential of couple IIIc/IIIa; for −EpaIII / −EpcIII / −E1/2: given with inverted sign, vs. Ag/AgCl electrode in DMSO; for −EpcIII: cathodic peak potential of couple IIIc/IIIa; for Ipa/Ipc: current ratio RNO2/RNO2•−, couple IIIc/IIIa, DMSO; for −E1/2: half-wave potential of couple IIIc/IIIa
Description: Cyclic Voltammetry (CV) was carried out using a Metrohm Autolab instrument model PGSTAT204, using dimethyl sulfoxide (DMSO) as the solvent (1 mM solutions), tetrabutylammonium perchlorate (0.1 M TBAP) as the supporting electrolyte, a hanging drop mercury electrode (HDME) as the working electrode, Ag/AgCl (3M KCl) as the reference electrode, and a graphite rod as the counter electrode. All measurements were performed after bubbling with nitrogen (N2) for 10 min.
Using Nicholson’s procedure, the Ipa/Ipc values (RNO2/RNO2^•−) were measured from each cyclic voltammogram with a scan rate between 0.1 and 2.5 V/s.

Dm28c trypomastigotes [8] = experiment: Intracellular ROS generation (DCFH2-DA); format: cell-based, Trypanosoma cruzi; settings: compound at IC50, 40 min
Description: ROS detection was performed using the 2′, 7′-dichlorodihydrofluorescein diacetate (DCFH2-DA) method. For Dm28c trypomastigotes, 96-well plates were seeded with 10 × 10^6 trypomastigotes/mL in RPMI medium without phenol red and supplemented with 5% SFBi. Cultures were incubated with a 20 μM DCFH2-DA solution for 15 min at 37 °C. Then, they were centrifuged at 6000 rpm and washed 2 times with phosphate-buffered saline at pH 7.4. The DCFH2-DA-loaded trypomastigotes were then transferred to a Nunc® fluorescence 96-well plate. […] The area under fluorescence increase over time curves were determined using Origin 8 software 9.2, with areas normalized to control. Results are the means ± SD of three independent experiments.

[9] = test system: trypomastigote form of T. cruzi (Dm28c strain); experiment: ESR spin trapping with DMPO in parasite media; format: cell-based, Trypanosoma cruzi; settings: trypomastigotes, NADPH, aerobic conditions
Description: The free radical production capacity of the new complexes was assessed in the parasite by ESR using 5,5- dimethyl-1-pirroline-N-oxide (DMPO) for spin trapping. Each tested compound was dissolved in DMSO (spectroscopy grade) (ca. 1 mM) and the solution was added to a mixture containing the trypomastigote form of T. cruzi (Dm28c strain, final protein concentration 4–8 mg/mL) and DMPO (final concentration 250 mM). The mixture was transferred to a 50 μL capillary. ESR spectra were recorded in the X band (9.85 GHz) using a Bruker ECS 106 spectrometer with a rectangular cavity and 50 KHz field modulation. All the spectra were registered in the same scale after 15 scans.

CL-B5 epimastigotes = test system: CL-B5 epimastigotes; set-up: method as in PMID 23124218; settings: cited from earlier work
RAW 264.7 cells [10] = experiment: Plasma membrane permeability (SYTOX Green) of RAW 264.7 cells; format: cell-based, murine
[11] = Mus musculus, RAW264.7, in vitro cytotoxicity

SMILES | SI Epimastigote [1] | −EpaIII [7] [V] | −EpcIII [7] [V] | Ipa/Ipc [7] | −E1/2 [7] [V] | trypanocidal activity against CL-B5 epimastigotes (CL-B5 epimastigotes) | IC50 ([1]; Trypanosoma cruzi) [µM] | IC50 (RAW 264.7 cells [2]; [11]) [µM] | IC50 (Dm28c trypomastigotes [5]; Trypanosoma cruzi) [µM] | further results
O=c1c2cc([N+](=O)[O-])ccc2[nH]n1Cc1ccccn1 [Compound 5a, 5-nitro-2-picolyl-indazolin-3-one] | 62.6 | 1.32 | 1.36 | 0.62 | 1.34 |  |  |  |  | IC50 [1]: 1.1 ± 0.3 µM; IC50 (RAW 264.7 cells [2]; in vitro cytotoxicity): 68.9 ± 0.7 µM; alteration of plasma membrane permeability (SYTOX Green incorporation) [3]: alter plasma membrane permeability; ATP levels [4]: significantly reduced ATP levels; SI Trypomastigote (Dm28c trypomastigotes [5]; Selectivity Index IC50 macrophages RAW 264.7/IC50 trypomastigotes Dm28c): 12.8; IC50 (Dm28c trypomastigotes [5]): 5.4 ± 0.7 µM; effect on mitochondrial membrane potential (ψm) [6]: statistically significant impact; intracellular ROS (DCF fluorescence intensity) (Dm28c trypomastigotes [8]): most significant increase in fluorescence intensity; radical species detected by DMPO spin trapping [9]: generation of the hydroxyl radical
CC(C)n1c2ccc([N+](=O)[O-])cc2c(=O)n1Cc1ccccc1 [Compound 2b] |  |  |  |  |  | effective against CL-B5 epimastigotes |  |  |  | 
Cn1c2ccc([N+](=O)[O-])cc2c(=O)n1Cc1ccccc1 [Compound 1] | 3.7 | 1.02 | 1.12 | 0.94 | 1.07 | effective against CL-B5 epimastigotes | 10.1 ± 0.6 | 37.8 ± 1.2 | > 100 | 
CCCn1c2ccc([N+](=O)[O-])cc2c(=O)n1Cc1ccccc1 [Compound 2a] |  |  |  |  |  | effective against CL-B5 epimastigotes |  |  |  | 
COc1ccccc1Cn1c(=O)c2cc([N+](=O)[O-])ccc2n1C [Compound 15, 2-(2-Methoxybenzyl)-1-methyl-5-nitro-1,2-dihydro-3H-indazol-3-one] |  | 1.04 | 1.16 | 0.96 | 1.10 |  | > 100 | 36.3 ± 1.1 | > 100 | melting point: 210 to 212 °C; effect on plasma membrane permeability (SYTOX Green incorporation) (RAW 264.7 cells [10]): significantly affect permeability
